Drawing on US7018642B2 (The Procter & Gamble Company, priority 2001, dated 2006), this text covers inhibition for six compounds.

Common to all, as to assay type: cell-based
The test system of test [1] is S. epidermidis strain ATCC 35984. As to the kind of experiment: Biofilm prevention screen (96-well microplate, crystal violet). Particulars: Staphylococcus epidermidis, positive = prevention, negative = enhancement of biofilm formation, quadruplicate, read-out: average percentage reduction of biofilm formed relative to DMSO controls; for inhibition at 32 µM: ATCC35984, 32 μM; for inhibition at 160 µM: ATCC35984, 160 μM; for inhibition at 390 µM: ATCC35984, 390 μM. As for the experimental part:
(§1) Overnight cultures of 3 mL are made of P. aeruginosa strain PAO1 (grown in R2A medium (Handbook of Microbiological Media; CRC Press, 1997, second edition, R. M. Atlas, ed.), modified to omit Mg^2+ but to include 0.3–0.5% fructose (pH 7.0) and 3 μM ferrous ammonium sulfate), P. fluorescens strain ATCC 13525 (grown in R2A modified to omit Mg^2+ but to include 0.3–0.5% sodium pyruvate (pH 7.0)), S. epidermidis strain ATCC 35984 (grown in a ¼ dilution of TSB (Handbook of Microbiological Media; CRC Press, 1997, second edition, R. M. Atlas, ed.) supplemented with 1% fructose (pH 7.0) and 3 μM ferrous ammonium sulfate). To each type of growth medium, HEPES (pH 7.3) is optionally added to a final concentration of 10 mM.
(§2) To PS, PVC, or PP (preferably PP or PVC) round-bottom, 96-well microplates containing 100 μl per well of the respective growth medium as described above, compounds to be tested (dissolved in DMSO) are added and mixed, to give a final concentration of 250–500 μM. These microplates then also are used to make successive dilutions of the compounds in the same respective growth medium to yield microplates containing final concentrations of, for example, 160 μM and 32 μM of the same set of compounds. Control wells are included in the dilution series that contain only DMSO. From the 3 ml overnight cultures, each of the three dilution plate sets is inoculated with 5 μl per well of a 1:1 dilution in the same liquid growth media of the appropriate culture. The covered plate is then incubated with shaking, at 30° C. (for P. aeruginosa or P. fluorescens) or 37° C. (for S. epidermidis), at 200 rpm, for 16–26 hours, in a humidity controlled environment.
(§3) Cells present in biofilm attached to the microplate surface are stained with CV either after removal of the liquid from each well, followed by rinsing three times (aspiration and addition) with 150 μl per well phosphate buffered saline solution (PBS) and final addition of 100 μl per well of PBS, or by direct addition of stain to bacterial cultures without rinsing. To 100 μl per well of PBS or of bacterial culture, 25 μl/well of 1% CV solution (in ˜10% ethanol) is added. After incubation at room temperature for 45 minutes, the dye solution is removed from the plates. Residual dye is immediately removed by gentle rinsing with a stream of deionized water by filling and inverting the plates 4–5 times, or by using an automated pipettor. Rinsed plates are air-dried at room temperature for 0.5–2 hours. Bound dye is extracted by the addition of 150 μL per well of 95% ethanol, followed by vigorous mixing for 10–15 seconds and incubation for 45 minutes at room temperature without shaking. Subsequently, either undiluted or diluted (in ethanol) samples of extracted CV are transferred to flat bottom, polystyrene microtiter plates and absorbances at 586 nm were measured in a microplate reader. Readings from wells containing compounds are compared to the average of data from control wells that contain only DMSO. Replicate samples are measured, and results are reported as averages of the replicate well data points.
(§4) Data are expressed in terms of the average percentage reduction of biofilm formed in the presence of each compound, relative to the DMSO controls, for quadruplicate samples. Assays are run using the three compound concentrations indicated. Positive numbers indicate prevention of biofilm formation by a compound, and negative numbers indicate enhancement of biofilm formation by a compound (percentage coefficients of variation are ≦10%).

The subject of test [2] is P. fluorescens strain ATCC 13525. Described as above. Particulars: Pseudomonas fluorescens, positive = prevention, negative = enhancement of biofilm formation, quadruplicate, read-out: average percentage reduction of biofilm formed relative to DMSO controls; for inhibition at 32 µM: ATCC13525, 32 μM; for inhibition at 160 µM: ATCC13525, 160 μM; for inhibition at 390 µM: ATCC13525, 390 μM. As for the experimental part: as §1, §2, §3, §4

For test [3], the system named is P. aeruginosa strain PAO1. The description is as above. Particulars: Pseudomonas aeruginosa, positive = prevention, negative = enhancement of biofilm formation, quadruplicate, read-out: average percentage reduction of biofilm formed relative to DMSO controls. As for the experimental part: as §1, §2, §3, §4
In test [4] the test system is S. epidermidis strain ATCC 35984. Put plainly: Improved biofilm dispersion screen (already-formed biofilms, crystal violet). The following applies: Staphylococcus epidermidis, ATCC35984, no NaOH, positive = dispersion, negative = enhancement of pre-existing biofilm, quadruplicate, read-out: average percentage reduction of biofilm relative to the two control values (dispersion). On the procedure:
(§5) A modification of method disclosed in Reference Example 2, which greatly improves the sensitivity and reproducibility of the dispersion screen is hereby disclosed. […] In the modification described herein, compounds are added in the presence of the fresh liquid growth media, such that the resultant biofilms continue to grow, unless a test compound triggers their dispersion. Overnight cultures are made as above, and 100 μL of the appropriate liquid growth media are dispensed into duplicate 96 well microplates—in this fashion, two identical microplates are set up for each bacterial species to be assayed. Neither compounds nor DMSO are added prior to the inoculation of bacteria, and growth in the duplicate plates for 24 hours is allowed using the conditions specified in Reference Example 1. After growth of biofilm to be tested in the wells, cells present in biofilm attached to one of the duplicate microplates is stained with CV, quantitated as described in Reference Example 1, and the data for the entire plate averaged, resulting in a growth control value, t0. The remaining replicate of each microplate pairs is treated with compounds in DMSO, or DMSO alone for control wells, by first removing the cell suspensions from the wells, then adding fresh 100 μL volumes of the same appropriate liquid growth media, followed by direct addition and mixing of the compound DMSO solutions to give final compound concentrations of 390 μM. Incubation of the compound-containing microplates is then continued for an additional 22–26 hours using the same conditions described in Reference Example 1. Cell suspensions are then removed, 100 μL per well of a 0 mM NaOH (S. epidermidis), 20 mM NaOH (P. fluorescens), or 30 mM NaOH (P. aeruginosa) solution in PBS is added, and incubation at room temperature is allowed for 30 minutes. No addition of NaOH is made to the S. epidermidis suspension since a test assay indicated no amplification by base with S. epidermidis. The microplates are subsequently rinsed three times with 150 μL per well of PBS, followed by final liquid removal, staining with CV and quantitation as described in Reference Example 1. Data for each well that contained compound result in a compound value, R, and data for control wells that contained DMSO only are averaged to generate a second control value, t24. The effect of each compound tested on dispersion of the biofilm compared to the two control values is calculated thus: [formula] […] Data are expressed in terms of the average percentage reduction of biofilm formed in the presence of each compound, relative to the two control values, for quadruplicate samples. Assays are run as described above, using compound concentrations of 390 μM. Positive numbers indicate dispersion (reduction) of pre-existing biofilms by a compound, and negative numbers indicate enhancement (stimulation of growth) of pre-existing biofilms by a compound (percentage coefficients of variation are ≦15%).

The test system of test [5] is P. fluorescens strain ATCC 13525. The test is described as above. Particulars: Pseudomonas fluorescens, ATCC13525, 20 mM NaOH step, positive = dispersion, negative = enhancement of pre-existing biofilm, quadruplicate, read-out: average percentage reduction of biofilm relative to the two control values (dispersion). On the procedure:
as §5

The test system of test [6] is P. aeruginosa strain PAO1. The test is described as above. The following applies: Pseudomonas aeruginosa, 30 mM NaOH step, positive = dispersion, negative = enhancement of pre-existing biofilm, quadruplicate, read-out: average percentage reduction of biofilm relative to the two control values (dispersion). On the procedure:
as §5

Regarding `CCCCCCCCNC(=O)[C@H]1CCCCN1C(=O)CCCCCCC` [Compound 28, 1-Octanoyl-(R)-(+)-2-piperidinecarboxylic acid n-octyl amide], the results for the inhibition at 32 µM in test [1], in test [2] and in test [3] were -5%, 21% and 0%, respectively. Also, the inhibition at 160 µM in test [1] was -44%; in test [2], 38%; in test [3], -3%. Moreover, the inhibition at 390 µM was -51% in test [1]; 26% in test [2]; -9% in test [3]; -8% in test [4]; 10% in test [5]; -25% in test [6].
Take `CCCCCCNC(=O)[C@@H]1CCCN1` [Compound 30]: the inhibition at 32 µM is -12% in test [1], 11% in test [2] and 2% in test [3]. The inhibition at 160 µM is -7% in test [1], 11% in test [2] and 9% in test [3]. Further, the inhibition at 390 µM was -6% in test [1]; 19% in test [2]; 18% in test [3]; -11% in test [4]; 20% in test [5]; 1% in test [6].
Regarding `CCCCCCCCNC(=O)[C@@H]1CCCN1` [Compound 31], the inhibition at 32 µM is -7% in test [1], 3% in test [2] and -37% in test [3]. The figures for the inhibition at 160 µM in test [1], in test [2] and in test [3] were -1%, 5% and -125%, respectively. Besides, the inhibition at 390 µM was -27% in test [1]; 52% in test [2]; -44% in test [3]; -11% in test [4]; 32% in test [5]; 21% in test [6].
Regarding `CCCCNC(=O)[C@H]1CCCN1C(=O)OC(C)(C)C` [Compound 152], the inhibition at 32 µM was -5% in test [1], 5% in test [2] and -4% in test [3]. Also, the inhibition at 160 µM in test [1] was -13%; in test [2] it was 5%; in test [3], -9%. Besides, the inhibition at 390 µM was -8% in test [1]; -7% in test [2]; 2% in test [3]; -4% in test [4]; 1% in test [5]; -9% in test [6].
For `CCCCCCNC(=O)[C@H]1CCCN1C(=O)OC(C)(C)C` [Compound 153], the values for the inhibition at 32 µM in test [1], in test [2] and in test [3] were -8%, 7% and -9%, respectively. Moreover, the inhibition at 160 µM is -7% in test [1], 4% in test [2] and -6% in test [3]. For the same compound, the inhibition at 390 µM was -17% in test [1]; -3% in test [2]; -4% in test [3]; -10% in test [4]; 1% in test [5]; -7% in test [6].
As for `CCCCCCCCNC(=O)[C@H]1CCCN1C(=O)OC(C)(C)C` [Compound 154], the results for the inhibition at 32 µM in test [1], in test [2] and in test [3] were -16%, 4% and -1%, respectively. The inhibition at 160 µM in test [1] was -42%; in test [2], 10%; in test [3], -9%. In addition, the inhibition at 390 µM in test [1] was 52%; in test [2], 11%; in test [3], -15%; in test [4], 0%; in test [5], 10%; in test [6], -63%.
